# Experimental data from PMC12797170, “Potent Competitive Inhibitors of Ecto-5′-nucleotidase (CD73) based on 6‑(Het)aryl-7-deazapurine Ribonucleoside 5′‑O‑Bisphosphonates” (ACS Pharmacology & Translational Science, 2025).
# Columns and labels:
# [1] = Microsomal stability assay, human liver microsomes; assay type: in vitro ADME; conditions: for Mics (hu) comp remaining 60 min: 10 μM; for microsomal CLint at 10 µM: pooled liver microsomes, pH 7.4, read-out: Mics (hu) CLint
# [2] = Plasma protein binding, equilibrium dialysis, human plasma; assay type: in vitro ADME; conditions: undiluted plasma
# [3] = Plasma protein binding, mouse plasma; assay type: in vitro ADME; conditions: mouse, plasma
# [4] = in vitro; conditions: human, plasma
# [5] = system: HL-60; assay: In vitro cytotoxic activity; assay type: cell-based; conditions: Homo sapiens
# Description: (§1) All the compounds were also tested for their in vitro cytotoxic activity on a small panel of four cancer cell lines (CCRF-CEM, HepG2, HeLa S3, HL-60) and nonmalignant human dermal fibroblasts (NHDF).
# [6] = system: CCRF-CEM; assay: In vitro cytotoxic activity; assay type: cell-based; conditions: Homo sapiens
# Description: as §1
# [7] = system: nonmalignant human dermal fibroblasts (NHDF); assay: In vitro cytotoxic activity; assay type: cell-based
# Description: as §1
# [8] = system: HeLa S3; assay: In vitro cytotoxic activity; assay type: cell-based; conditions: Homo sapiens
# Description: as §1
# [9] = system: HepG2; assay: In vitro cytotoxic activity; assay type: cell-based; conditions: Homo sapiens
# Description: as §1
# [10] = in vitro; conditions: mouse, plasma
# [11] = Kinetic solubility in PBS; assay type: physicochemical; conditions: phosphate-buffered saline, pH 7.4, aqueous buffer, kinetic from dmso stock
# Method in brief: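 Echo-MS quantitation with calibration from 0.05 to 4 μM, after 1:99 dilution of filtrate into 50% acetonitrile. Filtrate came from a 100 μM PBS (pH 7.4) solution equilibrated 2 h at room temperature with shaking, in duplicate.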
# [12] = Microsomal stability assay, mouse liver microsomes; assay type: in vitro ADME; conditions: for Mics (m) comp remaining 60 min: 10 μM; for microsomal CLint at 10 µM: pooled liver microsomes, pH 7.4, read-out: Mics (m) CLint
# [13] = biological target: T1, CYP3A4 (Homo sapiens, UniProt P08684); assay: In vitro CYP450 inhibition assay (Vivid); assay type: biochemical; conditions: probe fluorogenic Vivid CYP450 substrate (not named)
# T1 construct: assay run by Bienta (Enamine Biology Services)
# Description: (§2) The study was performed by Bienta (Enamine Biology Services). The potential for CYP450 inhibition (isoforms 1A2, 2C9, 2C19, 2D6, and 3A4) was assessed by performing in vitro inhibition studies using fluorogenic CYP450 substrates with the corresponding CYP450 enzymes and NADPH regeneration system (Vivid CYP450 Screening Kits) with some minor changes to the manufacturer’s protocols. The fluorescent signal produced from the reaction is directly proportional to the cytochrome P450 activity. In the cases when tested compounds interfere with the CYP450 enzyme–substrate reaction, the fluorescent signal decreases.
# (§3) Briefly, the tested compounds were first dissolved in DMSO at 100× concentration (1 mM) and diluted in buffer to 2.5× concentration (25 μM). […] After 10 min of preincubation, the enzymatic reaction was initiated by the addition of a mix of NADPH and the appropriate CYP450 substrates. The plate was incubated for the desired reaction time (25 min for CYP1A2, CYP2C9, CYP2D6, and CYP3A4; 60 min for CYP2C19) after which Stop Reagent was added and fluorescence measured using SpectraMax Paradigm Multi-Mode Microplate Reader. All test points were performed in quadruplicates at a concentration of 10 μM (1% DMSO).
# [14] = biological target: T2, CYP2C19 (Homo sapiens, UniProt P33261); assay: In vitro CYP450 inhibition assay (Vivid); assay type: biochemical; conditions: probe fluorogenic Vivid CYP450 substrate (not named)
# T2 construct: assay run by Bienta (Enamine Biology Services)
# Description: as §2, §3
# [15] = biological target: T3, CYP2D6 (Homo sapiens, UniProt P10635); assay: In vitro CYP450 inhibition assay (Vivid); assay type: biochemical; conditions: probe fluorogenic Vivid CYP450 substrate (not named)
# T3 construct: assay run by Bienta (Enamine Biology Services)
# Description: as §2, §3
# [16] = biological target: T4, CYP1A2 (Homo sapiens, UniProt P05177); assay: In vitro CYP450 inhibition assay (Vivid); assay type: biochemical; conditions: probe fluorogenic Vivid CYP450 substrate (not named)
# T4 construct: assay run by Bienta (Enamine Biology Services)
# T4 sequence (P05177 2-516 limits assumed): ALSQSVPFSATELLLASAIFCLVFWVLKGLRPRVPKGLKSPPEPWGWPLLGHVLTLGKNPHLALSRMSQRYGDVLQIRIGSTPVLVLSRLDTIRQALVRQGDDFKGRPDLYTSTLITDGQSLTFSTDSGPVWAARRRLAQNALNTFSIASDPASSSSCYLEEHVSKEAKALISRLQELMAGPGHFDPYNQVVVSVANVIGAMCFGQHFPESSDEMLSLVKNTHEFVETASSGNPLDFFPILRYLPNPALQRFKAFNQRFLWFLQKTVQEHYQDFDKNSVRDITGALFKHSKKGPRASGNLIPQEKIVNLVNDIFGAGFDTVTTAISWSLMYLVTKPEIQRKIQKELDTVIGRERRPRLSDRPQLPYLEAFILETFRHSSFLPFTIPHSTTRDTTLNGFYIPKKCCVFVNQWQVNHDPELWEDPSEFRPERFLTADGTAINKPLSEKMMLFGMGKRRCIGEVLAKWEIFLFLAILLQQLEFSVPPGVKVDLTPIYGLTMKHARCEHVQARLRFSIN
# Description: as §2, §3
# [17] = biological target: T5, CYP2C9 (Homo sapiens, UniProt P11712); assay: In vitro CYP450 inhibition assay (Vivid); assay type: biochemical; conditions: probe fluorogenic Vivid CYP450 substrate (not named)
# T5 construct: assay run by Bienta (Enamine Biology Services)
# Description: as §2, §3
# [18] = human plasma protein binding, read-out: PPB (hu) (converted)
# [19] = Tables 2 and 4, mouse plasma, read-out: fup, fraction unbound in mouse plasma
# [20] = mouse plasma protein binding, read-out: PPB (m) (converted)
# [21] = Tables 1 and 3, human plasma as printed in footnote, read-out: fup, fraction unbound in human plasma
# T1 sequence (P08684 2-503 limits assumed): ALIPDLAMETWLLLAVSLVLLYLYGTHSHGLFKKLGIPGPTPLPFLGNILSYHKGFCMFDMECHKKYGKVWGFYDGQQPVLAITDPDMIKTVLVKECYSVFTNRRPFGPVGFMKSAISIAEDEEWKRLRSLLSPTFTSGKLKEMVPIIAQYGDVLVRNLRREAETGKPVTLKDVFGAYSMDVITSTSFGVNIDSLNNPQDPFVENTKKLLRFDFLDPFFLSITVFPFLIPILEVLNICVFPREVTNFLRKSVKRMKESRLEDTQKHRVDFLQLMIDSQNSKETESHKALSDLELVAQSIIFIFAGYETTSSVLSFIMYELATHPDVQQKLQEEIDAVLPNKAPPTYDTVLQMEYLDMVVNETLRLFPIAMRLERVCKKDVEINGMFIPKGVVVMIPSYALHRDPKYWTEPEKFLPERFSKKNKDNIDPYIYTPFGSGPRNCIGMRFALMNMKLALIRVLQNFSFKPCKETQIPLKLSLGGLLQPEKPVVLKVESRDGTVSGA
# T2 sequence (P33261 whole entry): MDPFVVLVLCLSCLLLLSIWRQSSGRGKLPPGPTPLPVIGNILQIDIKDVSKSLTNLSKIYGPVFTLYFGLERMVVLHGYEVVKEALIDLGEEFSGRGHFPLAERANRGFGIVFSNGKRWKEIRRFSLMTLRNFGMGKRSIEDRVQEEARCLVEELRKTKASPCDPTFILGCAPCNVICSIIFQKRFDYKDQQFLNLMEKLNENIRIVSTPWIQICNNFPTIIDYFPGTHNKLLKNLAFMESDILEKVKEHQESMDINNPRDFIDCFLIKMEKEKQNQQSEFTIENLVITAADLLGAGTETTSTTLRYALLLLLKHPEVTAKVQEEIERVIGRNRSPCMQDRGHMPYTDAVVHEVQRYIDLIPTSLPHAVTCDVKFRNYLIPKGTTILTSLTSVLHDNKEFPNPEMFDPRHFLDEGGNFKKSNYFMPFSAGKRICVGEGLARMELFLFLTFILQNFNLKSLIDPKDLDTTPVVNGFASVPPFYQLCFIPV
# T3 sequence (P10635 whole entry): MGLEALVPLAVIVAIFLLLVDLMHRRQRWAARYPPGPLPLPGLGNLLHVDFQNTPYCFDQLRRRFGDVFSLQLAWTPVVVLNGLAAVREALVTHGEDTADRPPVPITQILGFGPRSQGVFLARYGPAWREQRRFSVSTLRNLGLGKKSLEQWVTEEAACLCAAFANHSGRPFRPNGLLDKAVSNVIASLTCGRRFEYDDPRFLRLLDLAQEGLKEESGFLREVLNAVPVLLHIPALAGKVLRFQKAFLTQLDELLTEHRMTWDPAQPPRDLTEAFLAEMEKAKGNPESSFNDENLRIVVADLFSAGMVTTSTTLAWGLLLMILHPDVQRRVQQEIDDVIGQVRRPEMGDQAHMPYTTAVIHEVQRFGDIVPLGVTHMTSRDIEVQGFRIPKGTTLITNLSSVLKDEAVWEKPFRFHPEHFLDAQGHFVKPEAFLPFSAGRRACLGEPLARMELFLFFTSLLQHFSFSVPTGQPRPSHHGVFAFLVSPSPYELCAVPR
# T5 sequence (P11712 whole entry): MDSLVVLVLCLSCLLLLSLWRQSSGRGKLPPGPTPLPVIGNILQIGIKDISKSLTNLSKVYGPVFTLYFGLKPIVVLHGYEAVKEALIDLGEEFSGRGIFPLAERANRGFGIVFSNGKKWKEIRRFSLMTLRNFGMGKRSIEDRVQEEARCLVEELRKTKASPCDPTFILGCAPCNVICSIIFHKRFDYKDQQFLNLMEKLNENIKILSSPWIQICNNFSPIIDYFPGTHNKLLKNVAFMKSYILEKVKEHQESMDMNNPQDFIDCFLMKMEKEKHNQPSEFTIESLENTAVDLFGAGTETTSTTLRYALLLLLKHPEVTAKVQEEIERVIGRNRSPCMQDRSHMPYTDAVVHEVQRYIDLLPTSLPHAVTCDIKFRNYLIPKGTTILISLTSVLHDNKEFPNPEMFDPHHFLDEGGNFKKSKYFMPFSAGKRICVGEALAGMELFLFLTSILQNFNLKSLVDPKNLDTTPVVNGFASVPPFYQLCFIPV
Mics (hu) comp remaining 60 min [1],microsomal CLint at 10 µM [1],"fraction unbound at 4 h, 100 µM [2, 18]","fraction unbound at 4 h, 100 µM [3, 19]","fraction unbound at 4 h, 100 µM [3, 20]",half-life at 10 µM [4],half-life at 10 µM [10],solubility at 2 h [11],Mics (m) comp remaining 60 min [12],microsomal CLint at 10 µM [12],"inhibition at 25 min, 10 µM [13]","inhibition at 60 min, 10 µM [14]","inhibition at 25 min, 10 µM [15]","inhibition at 25 min, 10 µM [16]","inhibition at 25 min, 10 µM [17]",SMILES,IC50 [5],IC50 [6],IC50 [7],IC50 [8],IC50 [9],also measured
124%,< 1 µL/min/mg,≤ 0.01,0.06,0.059,> 120 min,> 120 min,84 µM,123%,< 1 µL/min/mg,-23%,3%,6%,-17%,21%,O=P(O)(O)CP(=O)(O)OC[C@H]1O[C@@H](n2ccc3c(-c4ccc5c(c4)CCCC5)nc(Cl)nc32)[C@H](O)[C@@H]1O [7B.23],5.7 µM,> 10 µM,> 10 µM,> 10 µM,9.3 µM,
101%,< 1 µL/min/mg,0.005,0.22,0.216,> 120 min,> 120 min,85 µM,117%,< 1 µL/min/mg,-8%,10%,-13%,0%,15%,O=P(O)(O)CP(=O)(O)OC[C@H]1O[C@@H](n2ccc3c(-c4cccc5c4CCCC5)nc(Cl)nc32)[C@H](O)[C@@H]1O [7B.12],> 10 µM,> 10 µM,> 10 µM,> 10 µM,> 10 µM,
98%,1 µL/min/mg,0.045,0.51,0.515,> 120 min,> 120 min,89 µM,95%,1 µL/min/mg,0%,-20%,-18%,8%,12%,Cc1nc(-c2cccc3ccccc23)c2ccn([C@@H]3O[C@H](COP(=O)(O)CP(=O)(O)O)[C@@H](O)[C@H]3O)c2n1 [18E.6],> 10 µM,> 10 µM,> 10 µM,> 10 µM,> 10 µM,

# Second part, the compound before the results:
SMILES,Mics (hu) comp remaining 60 min [1],microsomal CLint at 10 µM [1],"fraction unbound at 4 h, 100 µM [2, 18]","fraction unbound at 4 h, 100 µM [3, 19]","fraction unbound at 4 h, 100 µM [3, 20]",half-life at 10 µM [4],half-life at 10 µM [10],solubility at 2 h [11],Mics (m) comp remaining 60 min [12],microsomal CLint at 10 µM [12],"inhibition at 25 min, 10 µM [13]","inhibition at 60 min, 10 µM [14]","inhibition at 25 min, 10 µM [15]","inhibition at 25 min, 10 µM [16]","inhibition at 25 min, 10 µM [17]",IC50 [5],IC50 [6],IC50 [7],IC50 [8],IC50 [9],also measured
O=P(O)(O)CP(=O)(O)OC[C@H]1O[C@@H](n2ccc3c(-c4ccc(F)c5ccccc45)nc(Cl)nc32)[C@H](O)[C@@H]1O [7B.28],95%,2 µL/min/mg,≤ 0.01,0.23,0.232,> 120 min,> 120 min,> 100 µM,101%,< 2 µL/min/mg,9%,22%,-6%,9%,24%,> 10 µM,> 10 µM,> 10 µM,> 10 µM,> 10 µM,
O=P(O)(O)CP(=O)(O)OC[C@H]1O[C@@H](n2ccc3c(-c4cccc5ccncc45)ncnc32)[C@H](O)[C@@H]1O [4A.18],105%,< 1 µL/min/mg,0.195,,0.727,> 120 min,> 120 min,56 µM,,< 1 µL/min/mg,-3%,3%,-10%,7%,11%,> 10 µM,> 10 µM,> 10 µM,> 10 µM,> 10 µM,
"O=P(O)(O)CP(=O)(O)OC[C@H]1O[C@@H](n2ccc3c(-c4ccc5c(c4)CCCC5)nc(I)nc32)[C@H](O)[C@@H]1O [27H.23, [(5-{[2-Iodo-4-(5,6,7,8-tetrahydronaphthalen-2-yl)-7H-pyrrolo[2,3-d]pyrimidin-7-yl]-β-D-ribofuranosyl}oxy)phosphonomethyl]phosphonic Acid]",104%,< 1 µL/min/mg,≤ 0.01,,0.036,> 120 min,> 120 min,> 100 µM,,2 µL/min/mg,-23%,-7%,-12%,-4%,11%,> 10 µM,> 10 µM,> 10 µM,> 10 µM,> 10 µM,"fraction unbound at 4 h, 100 µM [2, 21]: 0.036"
O=P(O)(O)CP(=O)(O)OC[C@H]1O[C@@H](n2ccc3c(-c4ccc5ccccc5c4)ncnc32)[C@H](O)[C@@H]1O [4A.7],,,0.011,,0.315,> 120 min,> 120 min,> 100 µM,,,-7%,10%,-17%,7%,23%,> 10 µM,> 10 µM,> 10 µM,> 10 µM,> 10 µM,"fraction unbound at 4 h, 100 µM [2, 21]: 0.31"
Cc1nc(-c2ccc3ccccc3c2)c2ccn([C@@H]3O[C@H](COP(=O)(O)CP(=O)(O)O)[C@@H](O)[C@H]3O)c2n1 [18E.7],86%,5 µL/min/mg,0.004,0.22,0.221,> 120 min,> 120 min,78 µM,97%,1 µL/min/mg,,,,,,> 10 µM,> 10 µM,> 10 µM,> 10 µM,> 10 µM,
